39 molecules from patent publication US20060063930A1, “Compositions and methods comprising proteinase activated receptor antagonists” (priority 2004, published 2006) can be followed below.

The structures appear in SMILES notation.

The subject of this experiment is PAR-2. The experiment in a line: Inhibition of PAR-2 activating peptide (AP2) calcium signaling in cells pretreated with antagonist. The experiment is classed as cell-based, human. Further details: key to PAR-2 AP2 Signaling Treated/Control (T/C) / PAR-2 AP2 Signaling Treated/Control: AUC of calcium mobilization, treated ÷ control wells. The settings on record: mimetic antagonists; AUC of calcium mobilization treated/control; initially screened at 1 mM compound. How it is done: In order to assess the potential of peptides and molecules selected above to block PAR-2 signaling, cells were pretreated with potential antagonist peptides for a predetermined amount of time and were subsequently treated with various GPCR agonists. Confluent Lewis lung carcinoma (LLC) cells were loaded for 30-60 minutes with the fluorescent dye Fluo-4. Final concentration 4 uM Fluo-4, 0.02% pluronic acid in physiological buffer. Cells were then washed with assay buffer, (HBSS containing 1 mM CaCl2, 1 mM MgSO4, and 2.5 mM probenecid). Cells were stimulated with various doses of PAR-2 activating peptide, PAR-1 activating peptide or ATP. Fluorescence was monitored using a Wallac 1470 fluorescent plate reader. (See Al-ani et. al Journal of Pharmacology and Experimental Therapeutics 290:2, 753-760). Additional compound screening was performed using U87-MG human glioma cells. In this assay cells were labeled with FLIPR Calcium 3 dye (Component A), which was dissolved in 10 mls of Assay Buffer without Probenecid. Loading buffer was prepared by diluting Component A with an additional 90 mls of Assay Buffer without Probenecid, giving a total volume of a 100 ml. For plate loading, 11 mls of FLIPR Calcium 3 dye (Component A) is placed into a 15 ml conical tube+110 μl of 250 mM Probenecid, at a final in-well working volume of 2.5 mM. Finally, 50 μl of Calcium 3 dye was added wells containing 100 μl media, and incubated 1 hr, 37° C., 5% CO2. Calcium signaling was then measured using a Flexstation II (Molecular Devices) following manufacturer's instructions.
Potential antagonist compounds were initially screened at 1 mM compound concentration. Those compounds with activity were then subjected to additional confirmatory testing. Activity is reported as treated/controlled (T/C) where the area under the curve (AUC) of calcium mobilization plots in treated wells is divided by the AUC of calcium mobilization plots in control wells to generate a measure of inhibition.
For `NCCCCCC(=O)N1CC(NC(=O)CC2CCCCC2)C1` [ENMD-1514, 2-cyclohexylacetamid-N-(6-amino-1-hexanoylazetidin-3-yl)], the “PAR-2 AP2 Signaling Treated/Control” value came to 0.53.
The same measure for `CC(C)CC(=O)N1CC(NC(=O)CCCCCN)C1` [ENMD-1515, N-[1-(3-methylbutanoyl)azetidin-3-yl]-6-aminohexanamide]: 0.65.
In the case of `CC(C)CC(=O)NC1CN(C(=O)CCCCCN)C1` [ENMD-1516, N-(6-amino-1-hexanoylazetidin3-yl)-3-methylbutanamide] it was 0.87; in that of `CC(C)CCn1c(=O)n(CCCCCCN)c2ccccc21` [ENMD-1517, 1-(6-aminohexyl)-3-[(3-methyl)butyl]benzimidazol(2)-one], 0.52.
The same measure for `NCCCCCCn1c(=O)n(CCC2CCCCC2)c2ccccc21` [ENMD-1518, 1-(6-aminohexyl)-3-[(2-cyclohexyl)ethyl]benzimidazol-(2)-one]: 0.58.
Regarding `CC(C)CCc1cn(CCCCCCN)nn1` [ENMD-1519, 1-(6-aminohexyl)-4-(3-methylbutyl)-1,2,3-triazole], the “PAR-2 AP2 Signaling Treated/Control” value stood at 0.65.
The same measure for `NCCCCCCn1cc(CCC2CCCCC2)nn1` [ENMD-1520, 1-(6-aminohexyl)-4-(2-cyclohexylethyl)-1,2,3-triazole]: 0.36; for `NCCCCCCNC(=O)C1CN(C(=O)CC2CCCCC2)CCO1` (stereo not drawn) [ENMD-1521, 4-(2-Cyclohexyl-acetyl)-morpholine-2-carboxylic acid (6-amino-hexyl)-amide]: 1.01; for `CC(C)CC(=O)N1CCOC(C(=O)NCCCCCCN)C1` (stereo not drawn) [ENMD-1522, 4-(3-Methyl-butyryl)-morpholine-2-carboxylic acid (6-amino-hexyl)-amide]: 1.00.
In the case of `NCCCCCC(=O)N1CCOC(C(=O)NCC2CCCCC2)C1` (stereo not drawn) [ENMD-1523, 4-(6-Amino-hexanoyl)-morpholine-2-carboxylic acid cyclohexylmethyl-amide] it was 0.54.
In the case of `CC(C)CNC(=O)C1CN(C(=O)CCCCCN)CCO1` (stereo not drawn) [ENMD-1524, 4-(6-Amino-hexanoyl)-morpholine-2-carboxylic acid isobutyl-amide] it was 0.73.
Regarding `CC(C)CNc1nc2ccc(C(=O)NCCCCCCN)cc2[nH]1` [ENMD-1525, 2-Isobutylamino-3H-benzoimidazole-5-carboxylic acid (6-amino-hexyl)-amide], the “PAR-2 AP2 Signaling Treated/Control” value is 0.52.
The same measure for `NCCCCCCNC(=O)c1ccc2nc(NCC3CCCCC3)[nH]c2c1` [ENMD-1526, 2-(Cyclohexylmethyl-amino)-3H-benzoimidazole-5-carboxylic acid (6-amino-hexyl)-amide]: 0.64; for `CC(C)CNC(=O)c1ccc(-c2ccc(NC(=O)CCCCCN)cc2)cc1` [ENMD-1527, 4′-(6-amino-hexanoylamino)-biphenyl-4-carboxylic acid isobutyl-amide]: 0.64.
Take `CC(C)CNC(=O)c1ccc(-c2ccc(NC(=O)CCCCCN(C)C)cc2)cc1` [ENMD-1529, 4′-(6-Dimethylamino-hexanoylamino)-biphenyl-4-carboxylic acid isobutyl-amide]: the “PAR-2 AP2 Signaling Treated/Control” value came out at 0.35.
In the case of `CC(C)CNC(=O)c1cc(NC(=O)CCCCCN)[nH]n1` [ENMD-1533, 5-(6-Amino-hexanoylamino)-1H-pyrazole-3-carboxylic acid isobutyl-amide] it was 0.68; in that of `NCCCCCC(=O)Nc1cc(C(=O)NCC2CCCCC2)n[nH]1` [ENMD-1534, 5-(6-amino-hexanoylamino)-1H-pyrazole-3-carboxylic acid cyclohexylmethyl-amide], 0.44.
The same measure for `O=C(Cc1cn(CCCCN2C(=O)c3ccccc3C2=O)cn1)NC1CCCCC1` [ENMD-1535, N-cyclohexyl-2-(1-(4-(1,3-dioxoisoindolin-2-yl)butyl)-1H-imidazol-4-yl)acetamide]: 0.46; for `CC(C)CNC(=O)[C@H]1CC[C@@H](NC(=O)CCCCCN)C1` [ENMD-1536, N-isobutyl-3S-(6-aminohexanamido)-cyclopentane-1R-carboxamide]: 0.42; for `CC(C)Cn1cccc1C(=O)NCCCCCCN` [ENMD-1537, N-(6-aminohexyl)-1-(2-methylpropyl)-2-pyrrolecarboxamide]: 0.91.
In the case of `NCCCCNC(=O)c1ccc(NCC2CCCCC2)nc1` [ENMD-1538] it was 0.48; in that of `CC(C)CCN1C(C(=O)NCCCCCCN)CCS1(=O)=O` (stereo not drawn) [ENMD-1539, N-(isoamyl)isothiasolidine-1,1-dioxide-3-carboxylic acid-6-aminohexylamide], 0.25.
For `NCCCCCCNC(=O)c1cccn1CC1CCCCC1` [ENMD-1540, N-(6-aminohexyl)-1-(2-cyclohexylmethyl)-2-pyrrolecarboxamide], the “PAR-2 AP2 Signaling Treated/Control” value was found to be 0.05.
In the case of `CC(C)CNc1ccc(C(=O)NCCCCN)cn1` [ENMD-1541] it was 0.65; in that of `NCCCCNc1ccc(C(=O)NCC2CCCCC2)cn1` [ENMD-1543], 0.55; in that of `NCCCCCCN1C(C(=O)NCCC2CCCCC2)CCS1(=O)=O` (stereo not drawn) [ENMD-1545, N-(6-aminohexyl)isothiazolidine-1,1-dioxide-3-carboxylic acid (2-cyclohexyl)ethylamide], 0.35.
The same measure for `CC(C)CCNC(=O)C1CCS(=O)(=O)N1CCCCCCN` (stereo not drawn) [ENMD-1546, N-(6-aminohexyl)isothiazolidine-1,1-dioxide-3-carboxylic acid isoamylamide]: 0.97.
The same measure for `NCCCCCCNC(=O)C1CCS(=O)(=O)N1CCC1CCCCC1` (stereo not drawn) [ENMD-1547, N-(2-cyclohexyl)ethylisothiasolidine-1,1-dioxide-3-carboxylic acid-6-aminohexylamide]: 0.24.
Consider `CC(C)CC(=O)Nc1nc(CC(=O)NCCCCCN)cs1` [ENMD-1549, N-{4-[(5-Amino-pentylcarbamoyl)-methyl]-thiazol-2-yl}-3-methyl-butyramide], for which the “PAR-2 AP2 Signaling Treated/Control” value amounted to 0.26.
The same measure for `CC(C)CC(=O)Nc1cc(C(=O)NCCCCCCN)n[nH]1` [ENMD-1550, 5-(3-methyl-butyrylamino)-1H-pyrazole-3-carboxylic acid (6-amino-hexyl)-amide]: 0.63; for `NCCCCCCNC(=O)c1cc(NC(=O)CC2CCCCC2)[nH]n1` [ENMD-1551, 5-(2-cyclohexyl-acetylamino)-1H-pyrazole-3-carboxylic acid (6-amino-hexyl)-amide]: 0.66.
For the molecule `CC(C)CCc1ccc(C(=O)NCCCCN)cc1` [ENMD-1552, N-(4-aminobutyl)-4-isopentyl-benzamide], the “PAR-2 AP2 Signaling Treated/Control” value is on record as 0.10.
In the case of `NCCCCCCNc1nc2ccc(C(=O)NCC3CCCCC3)cc2[nH]1` [ENMD-1553, 2-(6-Amino-hexylamino)-3H-benzoimidazole-5-carboxylic acid cyclohexylmethyl-amide] it was 0.81; in that of `CC(C)CNC(=O)Cc1csc(NC(=O)CCCCCN)n1` [ENMD-1554, 6-amino-hexanoic acid [4-(isobutylcarbamoyl-methyl)-thiazol-2-yl]-amide], 0.44.
The same measure for `CC(C)CNC(=O)c1cc(CNC(=O)CCCCN)on1` [ENMD-1555, 5-[(5-amino-pentanoylamino)-methyl]-isoxazole-3-carboxylic acid isobutyl-amide]: 0.86; for `CC(C)CC(=O)NCc1cc(C(=O)NCCCCCCN)no1` [ENMD-1556, 5-[(3-methyl-butyrylamino)-methyl]-isoxazole-3-carboxylic acid (6-amino-hexyl)-amide]: 0.57; for `NCCCCCCNC(=O)c1cc(CNC(=O)CC2CCCCC2)on1` [ENMD-1557, 5-[(2-Cyclohexyl-acetylamino)-methyl]-isoxazole-3-carboxylic acid (6-amino-hexyl)-amide]: 0.52.
Consider `NCCCCC(=O)NCc1cc(C(=O)NCC2CCCCC2)no1` [ENMD-1558, 5-[(5-amino-pentanoylamino)-methyl]-isoxazole-3-carboxylic acid cyclohexylmethyl-amide], for which the “PAR-2 AP2 Signaling Treated/Control” value is recorded as 0.60.
In the case of `NCCCCCNC(=O)Cc1csc(NC(=O)CC2CCCCC2)n1` [ENMD-1559, N-(5-amino-pentyl)-2-[2-(2-cyclohexyl-acetyl-amino)-thiazol-4-yl]-acetamide] it was 0.52.
